The results in this text go back to patent US6313092A, “Method for increasing the electrotransport flux of polypeptides” (ALZA Corporation, priority 1998, dated 2001).

Structures are written as SMILES. Where a SMILES comes first, the peptide text is derived from it. The star is where a group is joined. hSer(lactone) = O=C1OCC[C@@H]1N*

Series [1] can be described thus: In vitro electrotransport flux of the PTH analogs. Format: in vitro ADME, human. The settings on record: retro-inverso versions, 1 mM donor pH 5.0, 100 μA cm^-2, 32° C. The protocol: In vitro electrotransport studies were carried out in multi-compartment, custom-built, small volume cells using anodic drive. 1 mM PTH in 10 mM buffer was placed in the donor compartment and 25 mM final ionic strength receptor was placed in the receptor compartment. The receptor solution was 15 mM NaCl buffered to pH 7 with 10 mM imidazole, 0.1% bovine serum albumin (BSA) as a blocking agent, Tween 20 detergent and sodium azide as a bactericide.
Heat-stripped human cadaver stratum corneum was placed between the donor and receptor compartments with the epidermis side toward the receptor compartment. A constant DC current of […] (ie,0.1 mA/cm^2) was applied. Cells were maintained at 32° C. during the in vitro studies with receptor samples taken every 2 hours (receptor volume removed and replaced with "fresh" receptor at each sampling). Receptor samples were analyzed by reversed-phase HPLC.
Peak areas of PTH receptor samples were compared to standard curves of the same analog of known concentrations run at the same time using an analytical polymeric column, at a flow rate of 1.5 mL/min with a gradient from 10-50% B in ten minutes for elution. Buffer A was 0.1% trifluroacetic acid (TFA), 1% acetonitrile; Buffer B was 0.1% TFA, 98.9% acetonitrile. Analog concentrations were converted to mass flux and plotted vs. time.
For the in vitro electrotransport studies, described donors contained the retro-inverso versions (ie, D-amino acid residues were used and were assembled in reverse order than usual) of the PTH analogs (1 mM) in aqueous solutions at pH 5.0. This was because PTH analogs 1 and 2 were not stable when incubated with stripped stratum corneum, probably due to proteolytic digestion by skin proteases. The fully assembled electrotransport cells were incubated at 32±0.5° C. The skin contact area available for transport was 1.27 cm^2. The donor compartment volume was 200 μL; the receptor compartment volume was 350 μL. The receptor solution was separated from the cathode by an anion exchange membrane (Ionac™, Eletrosynthesis Co., Lancaster, N.Y.). Each cell was connected to a constant current source at a standard current density of 100 μA cm^-2. The voltage drop across each cell was monitored at approximately 2-hour intervals for the duration of the experiment.

In another series the target is T1, PTH receptor (Rattus norvegicus, UniProt P25961).
T1 sequence (P25961 27-591): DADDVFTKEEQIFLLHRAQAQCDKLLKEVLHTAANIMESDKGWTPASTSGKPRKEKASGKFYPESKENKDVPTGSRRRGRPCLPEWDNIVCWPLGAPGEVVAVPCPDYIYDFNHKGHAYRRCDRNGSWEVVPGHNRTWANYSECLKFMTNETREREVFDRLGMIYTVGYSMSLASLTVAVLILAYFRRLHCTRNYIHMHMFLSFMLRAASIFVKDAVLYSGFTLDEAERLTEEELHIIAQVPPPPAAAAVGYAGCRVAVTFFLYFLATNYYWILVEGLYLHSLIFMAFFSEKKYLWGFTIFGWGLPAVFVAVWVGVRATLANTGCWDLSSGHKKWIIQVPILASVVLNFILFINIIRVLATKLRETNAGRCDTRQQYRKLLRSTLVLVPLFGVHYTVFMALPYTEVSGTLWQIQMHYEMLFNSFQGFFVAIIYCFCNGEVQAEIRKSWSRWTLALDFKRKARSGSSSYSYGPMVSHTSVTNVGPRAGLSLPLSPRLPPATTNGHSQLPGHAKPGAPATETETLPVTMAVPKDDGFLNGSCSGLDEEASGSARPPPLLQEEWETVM
As to the kind of experiment: PTH analog activity assay: stimulation of adenylate cyclase (cAMP by SPA) in UMR106 cells.

The nature of series [2]: Stability on incubation with stripped stratum corneum. Format: in vitro ADME, human.

Procedure for PTH receptor: PTH concentrations were determined by OD280 using an extinction coefficient of 6600 for the recombinant peptide and 5500 for the synthetic peptide. The rat osteosarcoma cell line UMR106 (ATCC CRL 1661) was used for in vitro testing of the peptide's ability to activate the PTH receptor. Activation of the PTH receptor leads to an intracellular rise in cAMP concentration.
The UMR106 cells were seeded at about 2.5×10^5 per well in a 48 well dish and allowed to grow to confluence. Assays were performed on cells 3-5 days postconfluence. The media (Dulbecco's modified Eagle's medium, DMEM, with fetal calf serum) was removed, and 1 mL of fresh media was applied. PTH (recombinant or synthetic) at various concentrations and 3-isobutyl-l-methyl xanthine (IBMX) at 1 mM final concentration were then added to each well of the plate, which was then incubated for 5 minutes at room temperature. The media was then removed and the cells quickly washed with ice cold PBS. The cells were then extracted twice with 1 mL of absolute ethanol. The two extractions were combined and the ethanol removed by evaporation. The extract was then redissolved in 1 mL of scintillation proximity buffer (SPA buffer) (Amersham, Arlington Heights, Ill.). The cAMP concentration was determined by assay using a scintillation proximity assay (SPA) kit available from Amersham.

In series [1], `CC[C@H](C)[C@H](NC(=O)[C@H](CCC(=O)O)NC(=O)[C@H](CO)NC(=O)[C@@H](NC(=O)[C@@H](N)CO)C(C)C)C(=O)N[C@@H](CCC(N)=O)C(=O)N[C@@H](CC(C)C)C(=O)N[C@@H](CC(C)C)C(=O)N[C@@H](Cc1c[nH]cn1)C(=O)N[C@@H](CC(N)=O)C(=O)N[C@@H](CC(C)C)C(=O)NCC(=O)N[C@@H](CCCCN)C(=O)N[C@@H](Cc1c[nH]cn1)C(=O)N[C@@H](CCCNC(=N)N)C(=O)N[C@@H](CC(N)=O)C(=O)N[C@@H](CO)C(=O)N[C@@H](CC(C)C)C(=O)N[C@@H](CCCNC(=N)N)C(=O)N[C@@H](CCCNC(=N)N)C(=O)N[C@H](C(=O)N[C@@H](CCCNC(=N)N)C(=O)N[C@@H](Cc1c[nH]c2ccccc12)C(=O)N[C@@H](CC(C)C)C(=O)N[C@@H](CCCNC(=N)N)C(=O)N[C@@H](CCCCN)C(=O)N[C@@H](CCCCN)C(=O)N[C@@H](CC(C)C)C(=O)N[C@@H](CCCCN)C(=O)N[C@@H](CC(=O)O)C(=O)N[C@H](C(=O)N[C@@H](Cc1c[nH]cn1)C(=O)N[C@@H](CC(N)=O)C(=O)N[C@@H](Cc1ccc(O)cc1)C(=O)N[C@H]1CCOC1=O)C(C)C)C(C)C` [PTH analog 1] (H-SVSEIQLLHNLGKHRNSLRRVRWLRKKLKDVHNY-{hSer(lactone)}) returned an Average mass flux of 1.4 μg cm^-2 h^-1 and a median mass flux of 0.3 μg cm^-2 h^-1. Also, the response on PTH receptor was half-maximal at 0.9 nM (EC50). For the same compound, the “stability when incubated with stripped stratum corneum” value in series [2] is on record as “not stable”.
Consider `CC[C@H](C)[C@H](NC(=O)[C@H](CCC(=O)O)NC(=O)[C@H](CO)NC(=O)[C@@H](NC(=O)[C@@H](N)CO)C(C)C)C(=O)N[C@@H](CCC(N)=O)C(=O)N[C@@H](CC(C)C)C(=O)N[C@@H](CC(C)C)C(=O)N[C@@H](Cc1c[nH]cn1)C(=O)N[C@@H](CC(N)=O)C(=O)N[C@@H](CO)C(=O)NCC(=O)N[C@@H](CCCCN)C(=O)N[C@@H](Cc1c[nH]cn1)C(=O)N[C@@H](CCCNC(=N)N)C(=O)N[C@@H](CC(N)=O)C(=O)N[C@@H](CO)C(=O)N[C@@H](CO)C(=O)N[C@@H](CCCNC(=N)N)C(=O)N[C@@H](CCCNC(=N)N)C(=O)N[C@@H](CO)C(=O)N[C@@H](CCCNC(=N)N)C(=O)N[C@@H](Cc1c[nH]c2ccccc12)C(=O)N[C@@H](CO)C(=O)N[C@@H](CCCNC(=N)N)C(=O)N[C@@H](CCCCN)C(=O)N[C@@H](CCCCN)C(=O)N[C@@H](CO)C(=O)N[C@@H](CCCCN)C(=O)N[C@@H](CC(=O)O)C(=O)N[C@H](C(=O)N[C@@H](Cc1c[nH]cn1)C(=O)N[C@@H](CC(N)=O)C(=O)N[C@@H](CO)C(=O)N[C@H]1CCOC1=O)C(C)C` [PTH analog 2] (H-SVSEIQLLHNSGKHRNSSRRSRWSRKKSKDVHNS-{hSer(lactone)}), for which, in series [1], the Average mass flux turned out to be 4.1 μg cm^-2 h^-1 and the median mass flux was found to be 3.2 μg cm^-2 h^-1. Further, in series [2], the “stability when incubated with stripped stratum corneum” value is listed as “not stable”.
